Laboratory results taken from PubChem BioAssay (NCI).
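These data come from cells grown in 96-well plates and exposed to compound for 48 hours at five concentrations. At the GI50, growth is halved. At the TGI there is no net growth.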

Assays:
Experiment in all cases: inhibition of tumour cell growth, NCI panel, 48 h
[1] = system: HOP-62 NSCLC
[2] = system: HOP-92 NSCLC
[3] = system: HS 578T breast
[4] = system: IGROV1 ovarian
[5] = system: KM12 colon
[6] = system: LOX IMVI melanoma
[7] = system: M14 melanoma
[8] = system: NCI-H460 lung
[9] = system: SF-295 CNS
[10] = system: SNB-75 CNS

SMILES | GI50 [1] [µM] | TGI [1] [µM] | GI50 [2] [µM] | TGI [2] [µM] | GI50 [3] [µM] | TGI [3] [µM] | GI50 [4] [µM] | TGI [4] [µM] | GI50 [5] [µM] | TGI [5] [µM] | GI50 [6] [µM] | TGI [6] [µM] | GI50 [7] [µM] | TGI [7] [µM] | GI50 [8] [µM] | TGI [8] [µM] | GI50 [9] [µM] | TGI [9] [µM] | GI50 [10] [µM] | TGI [10] [µM]
O=c1cc(N2CCN(CCCCCOc3cc(O)c4c(=O)cc(-c5ccccc5)oc4c3)CC2)c2ccccc2o1 | > 100 | > 100 | 26.1 | > 100 | > 100 | > 100 | 47.4 | > 100 | 77.8 | > 100 | 51.2 | > 100 | 53.2 | > 100 | > 100 | > 100 | > 100 | > 100 | > 100 | > 100
C[C@]12CC[C@@H]3c4cc(-c5ccc(F)cc5)c(O)cc4CC[C@H]3[C@@H]1CC[C@@H]2O | 11.2 | 28.3 | 10.6 | 23.6 | 4.84 | 22.4 | 6 | 20.4 | 6.49 | 20.9 | 9.88 | 22.1 | 14.2 | 34.5 | 4.26 | 19.6 | 3.98 | 17.6 | 2.06 | 8.38
